Test results from patent US20040063662A1, “Selenophene anti-tumor agents” (priority 1996, published 2004).

What was measured:
[1] = tested on: CCRF-CEM; experiment: NCI human tumor cell panel: CCRF-CEM (Leukemia); format: cell-based; details: Leukemia
[2] = tested on: MOLT-4; experiment: NCI human tumor cell panel: MOLT-4 (Leukemia); format: cell-based; details: MOLT-4, Leukemia
[3] = tested on: SR; experiment: NCI human tumor cell panel: SR (Leukemia); format: cell-based; details: Leukemia
[4] = tested on: A549/ATCC; experiment: NCI human tumor cell panel: A549/ATCC (Non-Small Cell Lung Cancer); format: cell-based; details: Non-Small Cell Lung Cancer
[5] = tested on: HOP-62; experiment: NCI human tumor cell panel: HOP-62 (Non-Small Cell Lung Cancer); format: cell-based; details: HOP-62, Non-Small Cell Lung Cancer
[6] = tested on: NCI-H23; experiment: NCI human tumor cell panel: NCI-H23 (Non-Small Cell Lung Cancer); format: cell-based; details: NCI-H23, Non-Small Cell Lung Cancer
[7] = tested on: NCI-H322M; experiment: cells; format: cell-based; details: Homo sapiens, Non-Small Cell Lung Cancer
[8] = tested on: NCI-H460; experiment: NCI human tumor cell panel: NCI-H460 (Non-Small Cell Lung Cancer); format: cell-based; details: NCI-H460, Non-Small Cell Lung Cancer
[9] = tested on: HCT-116; experiment: NCI human tumor cell panel: HCT-116 (Colon Cancer); format: cell-based; details: HCT-116, Colon Cancer
[10] = tested on: HT29; experiment: NCI human tumor cell panel: HT29 (Colon Cancer); format: cell-based; details: HT-29, HT29, Colon Cancer
[11] = tested on: SF-295; experiment: NCI human tumor cell panel: SF-295 (CNS Cancer); format: cell-based; details: SF-295, CNS Cancer
[12] = tested on: SF-539; experiment: NCI human tumor cell panel: SF-539 (CNS Cancer); format: cell-based; details: SF-539, CNS Cancer
[13] = tested on: SNB-19; experiment: NCI human tumor cell panel: SNB-19 (CNS Cancer); format: cell-based; details: SNB-19, CNS Cancer
[14] = tested on: U251; experiment: NCI human tumor cell panel: U251 (CNS Cancer); format: cell-based; details: U-251, U251, CNS Cancer
[15] = tested on: MALME-3M; experiment: NCI human tumor cell panel: MALME-3M (Melanoma); format: cell-based; details: MALME-3M, Melanoma
[16] = tested on: M14; experiment: NCI human tumor cell panel: M14 (Melanoma); format: cell-based; details: M14, Melanoma
[17] = tested on: SK-MEL-28; experiment: NCI human tumor cell panel: SK-MEL-28 (Melanoma); format: cell-based; details: SK-MEL-28, Melanoma
[18] = tested on: SK-MEL-5; experiment: NCI human tumor cell panel: SK-MEL-5 (Melanoma); format: cell-based; details: SK-MEL-5, Melanoma
[19] = tested on: UACC-257; experiment: NCI human tumor cell panel: UACC-257 (Melanoma); format: cell-based; details: UACC-257, Melanoma
[20] = tested on: UACC-62; experiment: NCI human tumor cell panel: UACC-62 (Melanoma); format: cell-based; details: UACC-62, Melanoma
[21] = tested on: OVCAR-3; experiment: NCI human tumor cell panel: OVCAR-3 (Ovarian Cancer); format: cell-based; details: OVCAR-3, Ovarian Cancer
[22] = tested on: OVCAR-4; experiment: NCI human tumor cell panel: OVCAR-4 (Ovarian Cancer); format: cell-based; details: OVCAR-4, Ovarian Cancer
[23] = tested on: A498; experiment: NCI human tumor cell panel: A498 (Renal Cancer); format: cell-based; details: A498, Renal Cancer
[24] = tested on: ACHN; experiment: NCI human tumor cell panel: ACHN (Renal Cancer); format: cell-based; details: Renal Cancer
[25] = tested on: TK-10; experiment: NCI human tumor cell panel: TK-10 (Renal Cancer); format: cell-based; details: TK-10, Renal Cancer
[26] = tested on: PC-3; experiment: NCI human tumor cell panel: PC-3 (Prostate Cancer); format: cell-based; details: PC-3, Prostate Cancer
[27] = tested on: MCF7; experiment: NCI human tumor cell panel: MCF7 (Breast Cancer); format: cell-based; details: MCF7, Breast Cancer
[28] = tested on: MCF7/ADR-RES; experiment: NCI human tumor cell panel: MCF7/ADR-RES (Breast Cancer); format: cell-based; details: Breast Cancer
[29] = tested on: HS 578T; experiment: NCI human tumor cell panel: HS 578T (Breast Cancer); format: cell-based; details: Breast Cancer
[30] = tested on: MDA-MB-435; experiment: NCI human tumor cell panel: MDA-MB-435 (Breast Cancer); format: cell-based; details: MDA-MB-435, Breast Cancer
[31] = tested on: MDA-N; experiment: NCI human tumor cell panel: MDA-N (Breast Cancer); format: cell-based; details: Breast Cancer
[32] = tested on: HOP-92; experiment: NCI human tumor cell panel: HOP-92 (Non-Small Cell Lung Cancer)
[33] = read-out: Log10 GI50 (converted)
[34] = read-out: Log10 TGI (converted)

## O=Cc1ccc(-c2ccc(-c3ccc(C=O)[se]3)[se]2)[se]1 [NSC 675245]
[1]; [33]
  GI50: > 100 µM
[1]; [34]
  IC (TGI): > 100 µM
[2]; [33]
  GI50: > 100 µM
[2]; [34]
  IC (TGI): > 100 µM
[3]; [33]
  GI50: > 100 µM
[3]; [34]
  IC (TGI): > 100 µM
[4]; [33]
  GI50: > 100 µM
[4]; [34]
  IC (TGI): > 100 µM
[5]; [33]
  GI50: 51.3 µM
[5]; [34]
  IC (TGI): > 100 µM
[6]; [33]
  GI50: > 100 µM
[6]; [34]
  IC (TGI): > 100 µM
[7]; [33]
  GI50: > 100 µM
[7]; [34]
  IC (TGI): > 100 µM
[8]; [33]
  GI50: 1.78 µM
[8]; [34]
  IC (TGI): > 100 µM
[9]; [33]
  GI50: 0.692 µM
[9]; [34]
  IC (TGI): > 100 µM
[10]; [33]
  GI50: > 100 µM
[10]; [34]
  IC (TGI): > 100 µM
[11]; [33]
  GI50: 49 µM
[11]; [34]
  IC (TGI): > 100 µM
[12]; [33]
  GI50: > 100 µM
[12]; [34]
  IC (TGI): > 100 µM
[13]; [33]
  GI50: 29.5 µM
[13]; [34]
  IC (TGI): > 100 µM
[14]; [33]
  GI50: 1.05 µM
[14]; [34]
  IC (TGI): > 100 µM
[15]; [33]
  GI50: > 100 µM
[15]; [34]
  IC (TGI): > 100 µM
[16]; [33]
  GI50: > 100 µM
[16]; [34]
  IC (TGI): > 100 µM
[17]; [33]
  GI50: > 100 µM
[17]; [34]
  IC (TGI): > 100 µM
[18]; [33]
  GI50: 72.4 µM
[18]; [34]
  IC (TGI): > 100 µM
[19]; [33]
  GI50: 0.324 µM
[19]; [34]
  IC (TGI): 0.912 µM
[20]; [33]
  GI50: 0.0646 µM
[20]; [34]
  IC (TGI): > 100 µM
[21]; [33]
  GI50: 0.389 µM
[21]; [34]
  IC (TGI): > 100 µM
[22]; [33]
  GI50: 2.63 µM
[22]; [34]
  IC (TGI): > 100 µM
[23]; [33]
  GI50: 0.309 µM
[23]; [34]
  IC (TGI): 0.891 µM
[24]; [33]
  GI50: 57.5 µM
[24]; [34]
  IC (TGI): > 100 µM
[25]; [33]
  GI50: 0.257 µM
[25]; [34]
  IC (TGI): 0.813 µM
[26]; [33]
  GI50: > 100 µM
[26]; [34]
  IC (TGI): > 100 µM
[27]; [33]
  GI50: 1.48 µM
[27]; [34]
  IC (TGI): > 100 µM
[28]; [33]
  GI50: > 100 µM
[28]; [34]
  IC (TGI): > 100 µM
[29]; [33]
  GI50: 87.1 µM
[29]; [34]
  IC (TGI): > 100 µM
[30]; [33]
  GI50: > 100 µM
[30]; [34]
  IC (TGI): > 100 µM
[31]; [33]
  GI50: > 100 µM
[31]; [34]
  IC (TGI): > 100 µM
[32]; HOP-92, read-out: Log10 GI50 (converted)
  GI50: > 100 µM
[32]; HOP-92, read-out: Log10 TGI
  IC (TGI): > 100 µM
